In patent US8710043B2, “TRPM8 antagonists and their use in treatments” (Amgen Inc., priority 2011, dated 2014):

biological target: T1, human TRPM8 (Homo sapiens, UniProt Q7Z2W7); assay: Luminescence readout assay for measuring intracellular calcium, icilin activation; assay type: cell-based; settings: CHO cells expressing human TRPM8, aequorin luminescence, 1 μM icilin activation; read-out: hTRPM8 IC50
T1 construct: expressed in transfected cells; host or cells: Chinese hamster ovary (CHO) cells, T-REx tetracycline-inducible system, co-transfected with aequorin
In short: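 The read-out was luminescence reporting intracellular calcium, recorded by a CCD-based luminometer. Compounds were preincubated for 2.5 min before agonist challenge with 1 μM icilin. Human TRPM8 was expressed in a stable T-REx CHO line, induced with 0.5 μg/mL tetracycline the day before.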

T1 sequence (Q7Z2W7 whole entry): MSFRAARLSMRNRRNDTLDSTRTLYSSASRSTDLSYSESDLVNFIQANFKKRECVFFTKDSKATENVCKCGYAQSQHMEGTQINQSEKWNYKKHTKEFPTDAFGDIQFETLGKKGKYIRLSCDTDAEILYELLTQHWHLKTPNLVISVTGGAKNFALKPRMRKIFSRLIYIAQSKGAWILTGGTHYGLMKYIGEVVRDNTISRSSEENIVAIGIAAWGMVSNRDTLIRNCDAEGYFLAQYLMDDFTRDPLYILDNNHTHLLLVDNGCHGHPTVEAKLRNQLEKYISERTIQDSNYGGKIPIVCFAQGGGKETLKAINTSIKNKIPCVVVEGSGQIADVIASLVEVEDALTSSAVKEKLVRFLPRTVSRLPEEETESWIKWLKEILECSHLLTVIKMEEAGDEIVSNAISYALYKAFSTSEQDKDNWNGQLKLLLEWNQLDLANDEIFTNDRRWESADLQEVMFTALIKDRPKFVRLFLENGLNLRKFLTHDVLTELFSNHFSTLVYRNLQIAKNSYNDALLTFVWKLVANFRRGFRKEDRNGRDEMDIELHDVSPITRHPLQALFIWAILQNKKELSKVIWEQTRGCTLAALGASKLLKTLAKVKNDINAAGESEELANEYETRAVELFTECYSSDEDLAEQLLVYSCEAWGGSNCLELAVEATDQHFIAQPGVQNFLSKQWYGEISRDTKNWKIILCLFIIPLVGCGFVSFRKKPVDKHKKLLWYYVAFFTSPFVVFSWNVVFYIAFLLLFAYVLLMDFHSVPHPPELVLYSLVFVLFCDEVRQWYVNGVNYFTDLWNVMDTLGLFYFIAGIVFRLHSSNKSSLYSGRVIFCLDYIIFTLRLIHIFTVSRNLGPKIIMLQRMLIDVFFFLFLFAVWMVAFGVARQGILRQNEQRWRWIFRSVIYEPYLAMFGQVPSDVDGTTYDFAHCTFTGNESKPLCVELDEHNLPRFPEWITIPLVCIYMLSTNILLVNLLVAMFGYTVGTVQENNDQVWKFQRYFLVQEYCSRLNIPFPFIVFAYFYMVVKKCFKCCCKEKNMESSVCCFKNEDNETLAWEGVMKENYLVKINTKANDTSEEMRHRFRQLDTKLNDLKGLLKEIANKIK

IC50 [nM]	SMILES
19.6	COc1ccc(C(=O)NC(c2ccc(C(F)(F)F)cc2)c2ncccc2F)cn1 (stereo not shown) [Example 35, N-((3-fluoropyridin-2-yl)(4-(trifluoromethyl)phenyl)methyl)-6-methoxynicotinamide]
20	Cc1cccnc1[C@@H](NC(=O)c1ccc(=O)n(C)c1)c1ccc(OC(F)(F)F)cc1 [Example 360, (S)-1-methyl-N-((3-methylpyridin-2-yl)(4-(trifluoromethoxy)phenyl)methyl)-6-oxo-1,6-dihydropyridine-3-carboxamide]
311	O=C(N[C@@H](c1ccc(C(F)(F)F)cc1)c1cnccc1C(F)(F)F)c1ccc2ncccc2c1 [Example 260, (S)-N-((4-(trifluoromethyl)phenyl)(4-(trifluoromethyl)pyridin-3-yl)methyl)quinoline-6-carboxamide bis (2,2,2-trifluoroacetate)]
121	Nc1nc(C(=O)N[C@@H](c2ccc(C(F)(F)F)cc2)c2ncccc2C(F)(F)F)cs1 [Example 136, (S)-2-amino-N-((4-(trifluoromethyl)phenyl)(3-(trifluoromethyl)pyridin-2-yl)methyl)thiazole-4-carboxamide 2,2,2-trifluoroacetate]
78.9	COc1cccc(C(=O)N[C@@H](c2ccc(C(F)(F)F)cc2)c2ncccc2C(F)(F)F)c1 [Example 191, (S)-3-methoxy-N-((4-(trifluoromethyl)phenyl)(3-(trifluoromethyl)pyridin-2-yl)methyl)benzamide]
75.8	O=C(N[C@@H](c1cnc2c(Cl)cccc2c1)c1ncccc1C(F)(F)F)c1ccc2cccnc2c1 [Example 7, (S)-N-((8-chloroquinolin-3-yl)(3-(trifluoromethyl)pyridin-2-yl)methyl)quinoline-7-carboxamide]
63.1	Cc1ncc(C(=O)N[C@@H](c2ccc(C(F)(F)F)cc2)c2ncccc2C(F)(F)F)cn1 [Example 57, (S)-2-methyl-N-((4-(trifluoromethyl)phenyl)(3-(trifluoromethyl)pyridin-2-yl)methyl)pyrimidine-5-carboxamide]
257	CC(=O)Nc1ccc(C(=O)N[C@@H](c2ccc(C(F)(F)F)cc2)c2ncccc2C(F)(F)F)cn1 [Example 148, (S)-6-acetamido-N-((4-(trifluoromethyl)phenyl)(3-(trifluoromethyl)pyridin-2-yl)methyl)nicotinamide 2,2,2-trifluoroacetate]
7.6	O=C(N[C@@H](c1ccc(C(F)(F)F)cc1)c1ncccc1F)c1ccc2cn[nH]c2c1 [Example 166, (S)-N-((3-fluoropyridin-2-yl)(4-(trifluoromethyl)phenyl)methyl)-1H-indazole-6-carboxamide]
69.7	C[C@H](O)Cn1cc(C(=O)N[C@@H](c2ccc(C(F)(F)F)cc2)c2ncccc2F)ccc1=O [Example 300, N-((S)-(3-fluoropyridin-2-yl)(4-(trifluoromethyl)phenyl)methyl)-1-((S)-2-hydroxypropyl)-6-oxo-1,6-dihydropyridine-3-carboxamide]
41.4	O=C(N[C@@H](c1ccc(C(F)(F)F)cc1)c1ncccc1C(F)(F)F)c1ccc2c(c1)C(=O)NC2=O [Example 94, (S)-1,3-dioxo-N-((4-(trifluoromethyl)phenyl)(3-(trifluoromethyl)pyridin-2-yl)methyl)isoindoline-5-carboxamide]
611	COc1ccc(C(NC(=O)c2ccc(=O)[nH]c2)c2ccc(OC(F)(F)F)c(F)c2)nc1 (stereo not shown) [Example 421]
318	COc1cccc([C@H](NC(=O)c2ccc3cccnc3c2)c2ncccc2C(F)(F)F)c1 [Example 24, (S)-N-((3-methoxyphenyl)(3-(trifluoromethyl)pyridin-2-yl)methyl)quinoline-7-carboxamide]
36.8	COc1ccc([C@H](NC(=O)c2ccc3cccnc3c2)c2ncccc2C(F)(F)F)cc1F [Example 25, (S)-N-((3-fluoro-4-methoxyphenyl)(3-(trifluoromethyl)pyridin-2-yl)methyl)quinoline-7-carboxamide]
3210	Cc1cc(F)cc([C@H](NC(=O)c2ccc(=O)n(C)c2)c2ncccc2F)c1 [Example 326, (S)-N-((3-fluoro-5-methylphenyl)(3-fluoropyridin-2-yl)methyl)-1-methyl-6-oxo-1,6-dihydropyridine-3-carboxamide]
84.4	O=C(N[C@@H](c1ccc(C(F)(F)F)c(F)c1)c1ncccc1C(F)(F)F)c1ccccn1 [Example 112, (S)-N-((3-fluoro-4-(trifluoromethyl)phenyl)(3-(trifluoromethyl)pyridin-2-yl)methyl)picolinamide]
12.1	O=C(N[C@@H](c1ccc(OC(F)(F)F)cc1)c1ncccc1F)c1ccn2ccnc2c1 [Example 88, (S)-N-((3-fluoropyridin-2-yl)(4-(trifluoromethoxy)phenyl)methyl)imidazo[1,2-a]pyridine-7-carboxamide]

IC50 [nM]	SMILES
78.4	Cc1ncncc1C(=O)N[C@@H](c1ccc(C(F)(F)F)cc1)c1ncccc1C(F)(F)F [Example 60, (S)-4-methyl-N-((4-(trifluoromethyl)phenyl)(3-(trifluoromethyl)pyridin-2-yl)methyl)pyrimidine-5-carboxamide]
56.2	CCc1ccc([C@H](NC(=O)c2ccc3cccnc3c2)c2ncccc2C(F)(F)F)cc1 [Example 115, (S)-N-((4-ethylphenyl)(3-(trifluoromethyl)pyridin-2-yl)methyl)quinoline-7-carboxamide]
2530	O=C(CN1CCOC1=O)N[C@@H](c1ccc(C(F)(F)F)cc1)c1ncccc1C(F)(F)F [Example 154, (S)-2-(2-oxooxazolidin-3-yl)-N-((4-(trifluoromethyl)phenyl)(3-(trifluoromethyl)pyridin-2-yl)methyl)acetamide]
17.7	O=C(N[C@@H](c1ccc(Cl)c(Cl)c1)c1ncccc1C(F)(F)F)c1ccc(=O)[nH]c1 [Example 3, (S)-N-((3,4-dichlorophenyl)(3-(trifluoromethyl)pyridin-2-yl)methyl)-6-hydroxynicotinamide]
28.9	Cc1cccnc1[C@@H](NC(=O)c1ccc2c(c1)OCC(=O)N2)c1ccc(C(F)(F)F)cc1 [Example 85, (S)-N-((3-methylpyridin-2-yl)(4-(trifluoromethyl)phenyl)methyl)-3-oxo-3,4-dihydro-2H-benzo[b][1,4]oxazine-7-carboxamide]
29	O=C(N[C@@H](c1ccc(C(F)(F)F)cc1)c1ncccc1C(F)(F)F)c1ccc(Cl)cc1 [Example 185, (S)-4-chloro-N-((4-(trifluoromethyl)phenyl)(3-(trifluoromethyl)pyridin-2-yl)methyl)benzamide]
31.1	O=C(N[C@@H](c1ccc(C(F)(F)F)cc1)c1ncccc1F)c1ccc2nccc(Cl)c2c1 [Example 113, (S)-4-chloro-N-((3-fluoropyridin-2-yl)(4-(trifluoromethyl)phenyl)methyl)quinoline-6-carboxamide 2,2,2-trifluoroacetate]
11.7	O=C(N[C@@H](c1ccc(OC(F)(F)F)c(F)c1)c1ccccn1)c1ccc2[nH]c(=O)oc2c1 [Example 391, (S)-N-((3-fluoro-4-(trifluoromethoxy)phenyl)(pyridin-2-yl)methyl)-2-oxo-2,3-dihydrobenzo[d]oxazole-6-carboxamide]
77.7	COc1cncc(C(=O)N[C@@H](c2ccc(C(F)(F)F)cc2)c2ncccc2C(F)(F)F)c1 [Example 38, (S)-5-methoxy-N-((4-(trifluoromethyl)phenyl)(3-(trifluoromethyl)pyridin-2-yl)methyl)nicotinamide]
36.1	C[C@H](O)Cn1cc(C(=O)N[C@@H](c2ccc(OC(F)(F)F)c(F)c2)c2ncccc2F)ccc1=O [Example 298, N-((S)-(3-fluoro-4-(trifluoromethoxy)phenyl)(3-fluoropyridin-2-yl)methyl)-1-((S)-2-hydroxypropyl)-6-oxo-1,6-dihydropyridine-3-carboxamide]
30.4	COc1ccncc1C(=O)N[C@@H](c1ccc(C(F)(F)F)cc1)c1ncccc1C(F)(F)F [Example 55, (S)-4-methoxy-N-((4-(trifluoromethyl)phenyl)(3-(trifluoromethyl)pyridin-2-yl)methyl)nicotinamide]
100	O=C(N[C@@H](c1ccc(C(F)(F)F)c(F)c1)c1ncccc1C(F)(F)F)[C@@H]1CCCO1 [Example 119, (S)-N-((S)-(3-fluoro-4-(trifluoromethyl)phenyl)(3-(trifluoromethyl)pyridin-2-yl)methyl)THF-2-carboxamide]
459	O=C(N[C@@H](c1ccc(C(F)(F)F)cc1)c1ncccc1C(F)(F)F)C1CCOCC1 [Example 152, (S)-N-((4-(trifluoromethyl)phenyl)(3-(trifluoromethyl)pyridin-2-yl)methyl)tetrahydro-2H-pyran-4-carboxamide]
229	O=C(N[C@@H](c1ccc(C(F)(F)F)cc1)c1ncccc1C(F)(F)F)c1cc[nH]c(=O)c1 [Example 44, (S)-2-hydroxy-N-((4-(trifluoromethyl)phenyl)(3-(trifluoromethyl)pyridin-2-yl)methyl)isonicotinamide]
10.4	COc1ccccc1C(=O)N[C@@H](c1ccc(C(F)(F)F)cc1)c1ncccc1F [Example 169, (S)-N-((3-fluoropyridin-2-yl)(4-(trifluoromethyl)phenyl)methyl)-2-methoxybenzamide]
17	O=C(N[C@@H](c1ccc(OC(F)(F)F)cc1)c1ncccc1F)c1ccc2cccnc2c1 [Example 2, (S)-N-((3-fluoropyridin-2-yl)(4-(trifluoromethoxy)phenyl)methyl)quinoline-7-carboxamide]
56	O=C(N[C@@H](c1ccc(C(F)(F)F)cc1)c1ncccc1F)c1cnc(Cl)c(Br)c1 [Example 198, (S)-5-bromo-6-chloro-N-((3-fluoropyridin-2-yl)(4-(trifluoromethyl)phenyl)methyl)nicotinamide]
